The structures appear in SMILES notation. Calls of active or inactive are those of the source. The calls are words filed in the database; no cut-off is given here. A value given as a limit tells only on which side of the number the result lay.

Our source for the solubility, IC50 and ED50 values is ChEMBL document CHEMBL1125343, “Molecular yardsticks. Rigid probes to define the spatial dimensions of the benzodiazepine receptor binding site” (J Med Chem, 1992).

Series [1] is described as follows: Solubility in water. In kind it is physicochemical. The conditions noted are these: read-out: S.
Series [2] addresses GABA-A receptor; anion channel. Kind of series: In vitro affinity at the Benzodiazepine receptor (BzR) is its ability to displace [3H]diazepam from BzR. In kind it is protein-complex assay, Rattus norvegicus.
Series [3] has as its system Mus musculus. As to the kind of experiment: In vivo dose required to induce convulsions in 50% of the mice previously treated by a subconvulsant dose of pentylenetetrazole (40 mg/kg).
Series [4] relates to Mus musculus. Kind of series: Dose required to induce convulsions in 50% of the mice.(In vivo convulsant activity.).
Series [5] deals with Mus musculus. As to the kind of experiment: Dose required to induce convulsions in 50% of the mice that had been previously treated by a subconvulsant dose of pentylenetetrazole (40 mg/kg).
Series [6] has as its system Monkey. As to the kind of experiment: Anxiogenic activity in vivo in Rhesus monkeys; Potent activity. In kind it is functional, organism-based. Conditions: Cercopithecidae.
Series [7] relates to Rattus norvegicus. As to the kind of experiment: In vivo proconvulsant activity in rats. In kind it is functional.
For series [8], the system named is Monkey. Kind of series: Anxiogenic activity in vivo in Rhesus monkeys. In kind it is functional. The conditions noted are these: Cercopithecidae, in Macaca mulatta.
The species entered for series [9] is Rattus norvegicus. Kind of series: Dose required to induce convulsions in 50% of the rats. In kind it is functional.
For series [10], the system named is Mus musculus. Kind of series: Dose required to induce convulsions in 50% of the mice.(In vivo proconvulsant activity.).

With `Cl.c1ccc2c(c1)[nH]c1c[nH]c3c4ccncc4nc-3c12`, the solubility in [1] was determined as 13000 µg/mL. Further, in series [2], the IC50 was 51.5 nM. The 50% effect level with Mus musculus [3] (ED50) was put at a dose of 25 mg/kg.

The molecule `CCc1c(C(=O)OC)[nH]cc2nc3cc(OC)c(OC)cc3c1-2.Cl` had an ED50 in the series on Mus musculus [4] of 4 mg/kg. Also, the solubility in [1] is less than 200 µg/mL. Also, the IC50 in [2] came to 1 nM.

`c1ccc2c(c1)ccc1c3[nH]cc4nc5ccccc5c-4c3[nH]c21` came in with an IC50 in series [2] greater than 125 nM.

`c1ccc2c(c1)cnn1c2nc2c3c4ccccc4nc-3c[nH]c21` displayed an IC50 in [2] of 200 nM.

Consider `CCOc1cc2c3ccccc3nc-2c[nH]1.Cl`, for which the solubility in [1] came to 12000 µg/mL. Further, the ED50 with Mus musculus [5] and in the series with Rattus norvegicus [7] was 7 mg/kg throughout. In addition, in series [2], the IC50 worked out at 24 nM. Moreover, the ED50 result in the series with Monkey [6] is “Active”.

Take `Cl.c1ccc2c(c1)[nH]c1c[nH]c3c4cccnc4nc-3c12`: in series [1], the solubility came to 7600 µg/mL. Further, in series [2], the IC50 worked out at 10.6 nM. This molecule returned an ED50 in the series on Mus musculus [3] of 11 mg/kg.

In turn, `c1ccc2c(c1)ccc1nc3c4c5ccccc5nc-4c[nH]c3n12` showed an IC50 in series [2] greater than 3000 nM.

As to `CCOC(=O)c1cc2c3ccccc3nc-2c[nH]1.Cl`, the solubility in series [1] is 1000 µg/mL.

Regarding `c1ccc2c(c1)ccn1c2nc2c3c4ccccc4nc-3c[nH]c21`, in [2], the IC50 was greater than 2000 nM.

As to `CCOC(=O)c1cc2c(cn1)[nH]c1ccccc12`, the solubility in [1] is less than 200 µg/mL. Further, the ED50 in the series on Monkey [8] was 2.5 mg/kg; in the series on Rattus norvegicus [7] it was 75 mg/kg; in the series filed under Rattus norvegicus [9], 3.2 mg/kg.

Consider `Cl.c1ccc2c(c1)[nH]c1c2ncc2[nH]c3ccccc3c21`, for which, in [1], the solubility was less than 2000 µg/mL. Besides, the ED50 in the series on Mus musculus [10] was determined as 15.5 mg/kg.

`c1ccc2c(c1)[nH]c1cnc3c(nc4ccccn43)c12`: the IC50 in series [2] was found to be 39 nM.

In [2], `c1ccc2c(c1)ccc1[nH]c3c4c5ccccc5nc-4c[nH]c3c12` returned an IC50 greater than 125 nM.

In the case of `Cl.c1cnc2c3[nH]cc4[nH]c5ccccc5c4c-3nc2c1`, the solubility in series [1] was determined as 11000 µg/mL. This molecule displayed an IC50 in series [2] of 10.2 nM.

Regarding `c1ccc2c3c4ncc5[nH]c6ccccc6c5c4nc-3c[nH]c2c1`, the IC50 in series [2] was greater than 1000 nM.

By IC50 is commonly meant the concentration that inhibits the measured activity by half. What is called ED50 is the dose at which the effect has come halfway, by size or by number of responders.
